Data published in patent publication US12152035B2, “Androgen receptor binding molecule and use thereof” (Industrial Technology Research Institute, priority 2020, dated 2024).

Legend:
Format in all cases: cell-based
[1] = test system: CWR22RV1 cells; experiment: Cytotoxicity assay (AlamarBlue, 72 hours); details: 72 hours treatment, concentration not given
Procedure: (§1) Compound stock solutions of 10 mM were prepared with 100% DMSO and shaken for 10-15 seconds. The compound stock solutions were centrifuged at 12000 rpm (13523 rcf.) for 5 minutes and record the turbidity or precipitation state with a photo snapshot. The compound stock solutions were resuspended by shaking for 10-15 seconds, and serially diluted with 100% DMSO solution to make the compound concentration to 1000 μM, then to 100, 10, and 1 μM, and then 10-fold diluted with medium to 100, 10, 1, 0.1 μM (final 10% DMSO/medium) to complete compound test sample preparation. Compound treatment was performed by adding 10 μL of compound test sample to cells in each well of a 96-well plate (final 1% DMSO/medium).
(§2) Cells (CWR22Rv1 cells or VCaP cells) were cultured in RPMI-1640 medium supplemented with 10% fetal bovine serum, 10,000 U/mL penicillin and 10,000 μg/mL streptomycin. Cells were cultured at 37° C. in a humidified 5% CO2 incubator.
(§3) Cells were seeded in a 96-well plate (1×10^4 cells/well). 10 μL of the above compound test sample was added to each well of the 96-well plate on next day. After 72 hours of compound treatment, 10 μL of AlamaBlue reagent was added to each of 96 wells and incubated for 4 hours. The fluorescence value at Ex/Em=560/590 nm was read with a microplate reader, and the cytotoxicity (%) was calculated.
(§4) According to the above method, the compounds prepared above were subjected to cytotoxicity test with CWR22RV1 cells and VCaP cells.

[2] = test system: VCaP cells; experiment: Cytotoxicity assay (AlamarBlue, 72 hours); details: 72 hours treatment, concentration not given
Procedure: as §1, §2, §3, §4

[3] = test system: full-length androgen receptor; experiment: Western blot: degradation of full-length androgen receptor in CWR22RV1 cells; details: overnight
Procedure: CWR22Rv1 cells were maintained in RPMI medium supplemented with 10% fetal bovine serum and 1% penicillin-streptomycin at 37° C. in a humidified environment with 5% CO2.
CWR22Rv1 (5×10^5 cells) were seeded in each well of a 6-well plate and incubated overnight. Before compound treatment, the medium in the wells was replaced with a new medium. Cells were treated with different concentrations of compound overnight. Subsequently, cells were harvested by adding cold PBS and scraping cells. Cells were lysed according to general procedures and Western blot assays were performed to assess the ability of compounds to degrade full-length androgen receptor or androgen receptor splice variant 7. The cells or cell lysates were kept on ice at all times.
The following reagents were used in this experiment. Phosphate buffered saline (PBS) (Hyclone, SH30028.02), fetal bovine serum (Hyclone, SH30084.23, Lot AC14563276), penicillin-streptomycin solution (Hyclone, SV30010), 0.5% Trypsin-EDTA (Gibco, 15400-054), CST Lysis Buffer (CST-9803), Halt™ Protease and Phosphatase Inhibitor (ThermoFisher, 78442), Coomassie (Bradford) Protein Assay (Coomassie (Bradford) protein assay) (ThermoFisher, 23200), androgen receptor antibody (Cell Siginaling, CST-5153S), GAPDH antibody (Cell Siginaling, CST-5174S), HRP-goat-anti-rabbit (Jackson Immuno Research, 111-035-003), skim milk, SuperSignal West Pico Maximum Sensitivity substrate (ThermoFisher, 34080).
The compound prepared above was analyzed for its ability to degrade full-length androgen receptor and androgen receptor splice variant 7 in CWR22RV1 cells by Western blotting according to the method shown in item B.3-2 above.

[4] = compound concentration 0.1 (unit not given)
[5] = compound concentration 1 (unit not given)
[6] = compound concentration 10 (unit not given)

Cc1cc([C@H](C(=O)N2C[C@H](O)C[C@H]2C(=O)N[C@@H](CC(=O)N2CCC(N3CCC(C#Cc4ccc(C5CCN(C6=Nn7c(nnc7C(F)(F)F)CC6)CC5)cc4)CC3)CC2)c2ccc(-c3scnc3C)cc2)C(C)C)on1 [Compound 9, (2S,4R)-4-hydroxy-1-((R)-3-methyl-2-(3-methylisoxazol-5-yl)butanoyl)-N—((S)-1-(4-(4-methylthiazol-5-yl)phenyl)-3-oxo-3-(4-((4-(1-(3-(trifluoromethyl)-7,8-dihydro-[1,2,4]triazolo[4,3-b]pyridazin-6-yl)piperidin-4-yl)phenyl)ethynyl)-[1,4′-bipiperidin]-1′-yl)propyl)pyrrolidine-2-carboxamide]
Cytotoxicity, CWR22RV1 cells (cell viability %) [1]: ++ (40-60% : ++)
Cytotoxicity, VCaP cells (cell viability %) [2]: +++ (<40% : +++)
Degradation ability for full-length androgen receptor (residual rate %) [3, 4]: + (60-80%: +)
Degradation ability for full-length androgen receptor (residual rate %) [3, 5]: +++ (<40%: +++)
Degradation ability for full-length androgen receptor (residual rate %) [3, 6]: + (60-80%: +)

Cc1cc([C@H](C(=O)N2C[C@H](O)C[C@H]2C(=O)N[C@@H](CC(=O)N2CCC(C#Cc3ccc(C4CCN(C5=Nn6c(nnc6C(F)(F)F)CC5)CC4)cc3)CC2)c2ccc(-c3scnc3C)cc2)C(C)C)on1 [Compound 14, (2S,4R)-4-hydroxy-1-((R)-3-methyl-2-(3-methylisoxazol-5-yl)butanoyl)-N—((S)-1-(4-(4-methylthiazol-5-yl)phenyl)-3-oxo-3-(4-((4-(1-(3-(trifluoromethyl)-7,8-dihydro-[1,2,4]triazolo[4,3-b]pyridazin-6-yl)piperidin-4-yl)phenyl)ethynyl)piperidin-1-yl)propyl)pyrrolidine-2-carboxamide]
Cytotoxicity, CWR22RV1 cells (cell viability %) [1]: +++ (<40% : +++)
Cytotoxicity, VCaP cells (cell viability %) [2]: +++ (<40% : +++)
Degradation ability for full-length androgen receptor (residual rate %) [3, 4]: − (>80%; −)
Degradation ability for full-length androgen receptor (residual rate %) [3, 5]: − (>80%; −)
Degradation ability for full-length androgen receptor (residual rate %) [3, 6]: +++ (<40%: +++)

Cc1ncsc1-c1ccc(CNC(=O)[C@@H]2C[C@H](O)CN2C(=O)[C@@H](NC(=O)COCCOc2ccc(C3CCN(C4=Nn5c(nnc5C(F)(F)F)CC4)CC3)cc2)C(C)(C)C)cc1 [Compound 19, (2S,4S)-1-((S)-3,3-dimethyl-2-(2-(2-(4-(1-(3-(trifluoromethyl)-7,8-dihydro-[1,2,4]triazolo[4,3-b]pyridazin-6-yl)piperidin-4-yl)phenoxy)ethoxy)acetamido)butanoyl)-4-hydroxy-N-(4-(4-methylthiazol-5-yl)benzyl)pyrrolidine-2-carboxamide]
Cytotoxicity, CWR22RV1 cells (cell viability %) [1]: − (<80% : −)
Cytotoxicity, VCaP cells (cell viability %) [2]: − (<80% : −)
Degradation ability for full-length androgen receptor (residual rate %) [3, 4]: − (>80%; −)
Degradation ability for full-length androgen receptor (residual rate %) [3, 5]: − (>80%; −)
Degradation ability for full-length androgen receptor (residual rate %) [3, 6]: − (>80%; −)

Cc1ncsc1-c1ccc(CNC(=O)[C@@H]2C[C@H](O)CN2C(=O)[C@@H](NC(=O)COCCCCCOc2ccc(C3CCN(C4=Nn5c(nnc5C(F)(F)F)CC4)CC3)cc2)C(C)(C)C)cc1 [Compound 21]
Cytotoxicity, CWR22RV1 cells (cell viability %) [1]: +++ (<40% : +++)
Cytotoxicity, VCaP cells (cell viability %) [2]: + (60-80% : +)
Degradation ability for full-length androgen receptor (residual rate %) [3, 4]: − (>80%; −)
Degradation ability for full-length androgen receptor (residual rate %) [3, 5]: − (>80%; −)
Degradation ability for full-length androgen receptor (residual rate %) [3, 6]: +++ (<40%: +++)

Cc1ncsc1-c1ccc(CNC(=O)[C@@H]2C[C@H](O)CN2C(=O)[C@@H](NC(=O)COCCCCCCOc2ccc(C3CCN(C4=Nn5c(nnc5C(F)(F)F)CC4)CC3)cc2)C(C)(C)C)cc1 [Compound 22]
Cytotoxicity, CWR22RV1 cells (cell viability %) [1]: +++ (<40% : +++)
Cytotoxicity, VCaP cells (cell viability %) [2]: +++ (<40% : +++)
Degradation ability for full-length androgen receptor (residual rate %) [3, 4]: ++ (40-60%: ++)
Degradation ability for full-length androgen receptor (residual rate %) [3, 5]: +++ (<40%: +++)
Degradation ability for full-length androgen receptor (residual rate %) [3, 6]: +++ (<40%: +++)

Cc1ncsc1-c1ccc(CNC(=O)[C@@H]2C[C@H](O)CN2C(=O)[C@@H](NC(=O)COCCCCCCCOc2ccc(C3CCN(C4=Nn5c(nnc5C(F)(F)F)CC4)CC3)cc2)C(C)(C)C)cc1 [Compound 23, (2S,4S)-1-((S)-3,3-dimethyl-2-(2-((7-(4-(1-(3-(trifluoromethyl)-7,8-dihydro-[1,2,4]triazolo[4,3-b]pyridazin-6-yl)piperidin-4-yl)phenoxy)heptyl)oxy)acetamido)butanoyl)-4-hydroxy-N-(4-(4-methylthiazol-5-yl)benzyl)pyrrolidine-2-carboxamide]
Cytotoxicity, CWR22RV1 cells (cell viability %) [1]: +++ (<40% : +++)
Cytotoxicity, VCaP cells (cell viability %) [2]: +++ (<40% : +++)

O=C1CCC(N2Cc3c(NC(=O)COCCCCOc4ccc(C5CCN(C6=Nn7c(nnc7C(F)(F)F)CC6)CC5)cc4)cccc3C2=O)C(=O)N1 (stereo not shown) [Compound 30, N-(2-(2,6-dioxopiperidin-3-yl)-1-oxoisoindolin-4-yl)-2-(4-(4-(1-(3-(trifluoromethyl)-7,8-dihydro-[1,2,4]triazolo[4,3-b]pyridazin-6-yl)piperidin-4-yl)phenoxy)butoxy)acetamide]
Cytotoxicity, CWR22RV1 cells (cell viability %) [1]: +++ (<40% : +++)
Cytotoxicity, VCaP cells (cell viability %) [2]: +++ (<40% : +++)
Degradation ability for full-length androgen receptor (residual rate %) [3, 4]: ++ (40-60%: ++)
Degradation ability for full-length androgen receptor (residual rate %) [3, 5]: +++ (<40%: +++)
Degradation ability for full-length androgen receptor (residual rate %) [3, 6]: +++ (<40%: +++)

O=C1CCC(N2Cc3c(C#CCCCCOc4ccc(C5CCN(C6=Nn7c(nnc7C(F)(F)F)CC6)CC5)cc4)cccc3C2=O)C(=O)N1 (stereo not shown) [Compound 31, 3-(1-oxo-4-(6-(4-(1-(3-(trifluoromethyl)-7,8-dihydro-[1,2,4]triazolo[4,3-b]pyridazin-6-yl)piperidin-4-yl)phenoxy)hex-1-ynyl)isoindolin-2-yl)piperidine-2,6-dione]
Cytotoxicity, CWR22RV1 cells (cell viability %) [1]: + (60-80% : +)
Cytotoxicity, VCaP cells (cell viability %) [2]: + (60-80% : +)

O=C1CCC(N2Cc3c(NC(=O)COCCCCCCOc4ccc(C5CCN(C6=Nn7c(nnc7C(F)(F)F)CC6)CC5)cc4)cccc3C2=O)C(=O)N1 (stereo not shown) [Compound 32, N-(2-(2,6-dioxopiperidin-3-yl)-1-oxoisoindolin-4-yl)-2-((6-(4-(1-(3-(trifluoromethyl)-7,8-dihydro-[1,2,4]triazolo[4,3-b]pyridazin-6-yl)piperidin-4-yl)phenoxy)hexyl)oxy)acetamide]
Cytotoxicity, CWR22RV1 cells (cell viability %) [1]: + (60-80% : +)
Cytotoxicity, VCaP cells (cell viability %) [2]: ++ (40-60% : ++)

Cc1ncsc1-c1ccc(CNC(=O)[C@@H]2C[C@H](O)CN2C(=O)[C@@H](NC(=O)c2ccc(C(=O)N3CCC(C#Cc4ccc(C5CCN(C6=Nn7c(nnc7C(F)(F)F)CC6)CC5)cc4)CC3)cc2)C(C)(C)C)cc1 [Compound 33, 1-(3,3-dimethyl-2-(4-(4-((4-(1-(3-(trifluoromethyl)-7,8-dihydro-[1,2,4]triazolo[4,3-b]pyridazin-6-yl)piperidin-4-yl)phenyl)ethynyl)piperidine-1-carbonyl)benzamido)butanoyl)-4-hydroxy-N-(4-(4-methylthiazol-5-yl)benzyl)pyrrolidine-2-carboxamide]
Cytotoxicity, CWR22RV1 cells (cell viability %) [1]: − (<80% : −)
Cytotoxicity, VCaP cells (cell viability %) [2]: +++ (<40% : +++)

Cc1ncsc1-c1ccc(CNC(=O)[C@@H]2C[C@H](O)CN2C(=O)[C@@H](NC(=O)COCCCCOc2ccc(C3CCN(C4=Nn5c(nnc5C(F)(F)F)CC4)CC3)cc2)C(C)(C)C)c(O)c1 [Compound 35, (2S,4S)-1-((S)-3,3-dimethyl-2-(2-(4-(4-(1-(3-(trifluoromethyl)-7,8-dihydro-[1,2,4]triazolo[4,3-b]pyridazin-6-yl)piperidin-4-yl)phenoxy)butoxy)acetamido)butanoyl)-4-hydroxy-N-(2-hydroxy-4-(4-methylthiazol-5-yl)benzyl)pyrrolidine-2-carboxamide]
Cytotoxicity, CWR22RV1 cells (cell viability %) [1]: +++ (<40% : +++)
Cytotoxicity, VCaP cells (cell viability %) [2]: +++ (<40% : +++)
